Results taken from patent publication US20230255943A1, “MMP-9 AND MMP-12 INHIBITION FOR TREATING SPINAL CORD INJURY OR RELATED INJURY TO NEUROLOGICAL TISSUE” (The University of Birmingham, priority 2020, published 2023).
Where “and” joins values, the source holds several entries; their conditions need not be identical. Equal values may be shown once. Entries after “also recorded” stand apart in the source; their conditions may differ. Where a name gives a salt, the structure may show the parent alone.

Legend:
rat MMP-9 = rat MMP-9 (Rattus norvegicus, UniProt P50282); experiment: Inhibition of rat MMP-9; format: biochemical
rat MMP-9, sequence (P50282 108-708): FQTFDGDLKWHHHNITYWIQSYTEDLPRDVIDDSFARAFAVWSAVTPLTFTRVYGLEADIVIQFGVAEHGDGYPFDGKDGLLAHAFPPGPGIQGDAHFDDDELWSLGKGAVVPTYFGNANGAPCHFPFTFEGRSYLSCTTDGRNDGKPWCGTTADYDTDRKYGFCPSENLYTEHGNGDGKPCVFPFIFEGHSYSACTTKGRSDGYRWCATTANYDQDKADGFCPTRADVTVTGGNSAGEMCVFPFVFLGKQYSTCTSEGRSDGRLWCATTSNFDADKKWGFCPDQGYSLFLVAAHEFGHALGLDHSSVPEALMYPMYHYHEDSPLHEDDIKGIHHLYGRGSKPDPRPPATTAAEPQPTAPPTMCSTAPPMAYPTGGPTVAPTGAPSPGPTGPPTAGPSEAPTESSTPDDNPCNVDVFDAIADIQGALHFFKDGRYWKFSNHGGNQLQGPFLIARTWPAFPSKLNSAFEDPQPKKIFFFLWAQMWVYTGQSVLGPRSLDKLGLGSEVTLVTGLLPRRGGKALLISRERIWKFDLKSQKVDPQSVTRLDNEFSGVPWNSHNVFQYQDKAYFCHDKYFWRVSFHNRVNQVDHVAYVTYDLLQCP

rat MMP-12 = rat MMP-12 (Rattus norvegicus, UniProt Q63341); experiment: Inhibition of rat MMP-12; format: biochemical
rat MMP-12, sequence (Q63341 102-465): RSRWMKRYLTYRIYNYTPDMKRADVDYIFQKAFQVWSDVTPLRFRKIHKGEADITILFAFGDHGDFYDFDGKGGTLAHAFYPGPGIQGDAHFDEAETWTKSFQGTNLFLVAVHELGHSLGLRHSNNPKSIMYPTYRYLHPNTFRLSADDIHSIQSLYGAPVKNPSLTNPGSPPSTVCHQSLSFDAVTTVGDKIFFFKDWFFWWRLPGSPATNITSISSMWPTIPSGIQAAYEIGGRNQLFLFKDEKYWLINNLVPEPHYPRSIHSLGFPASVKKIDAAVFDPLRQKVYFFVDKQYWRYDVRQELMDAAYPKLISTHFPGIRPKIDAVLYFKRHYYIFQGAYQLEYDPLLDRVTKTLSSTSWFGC

human MMP-9 = human MMP-9 (Homo sapiens, UniProt P14780); experiment: Inhibition of human MMP-9 (IC50); format: biochemical
human MMP-9, sequence (P14780 94-707): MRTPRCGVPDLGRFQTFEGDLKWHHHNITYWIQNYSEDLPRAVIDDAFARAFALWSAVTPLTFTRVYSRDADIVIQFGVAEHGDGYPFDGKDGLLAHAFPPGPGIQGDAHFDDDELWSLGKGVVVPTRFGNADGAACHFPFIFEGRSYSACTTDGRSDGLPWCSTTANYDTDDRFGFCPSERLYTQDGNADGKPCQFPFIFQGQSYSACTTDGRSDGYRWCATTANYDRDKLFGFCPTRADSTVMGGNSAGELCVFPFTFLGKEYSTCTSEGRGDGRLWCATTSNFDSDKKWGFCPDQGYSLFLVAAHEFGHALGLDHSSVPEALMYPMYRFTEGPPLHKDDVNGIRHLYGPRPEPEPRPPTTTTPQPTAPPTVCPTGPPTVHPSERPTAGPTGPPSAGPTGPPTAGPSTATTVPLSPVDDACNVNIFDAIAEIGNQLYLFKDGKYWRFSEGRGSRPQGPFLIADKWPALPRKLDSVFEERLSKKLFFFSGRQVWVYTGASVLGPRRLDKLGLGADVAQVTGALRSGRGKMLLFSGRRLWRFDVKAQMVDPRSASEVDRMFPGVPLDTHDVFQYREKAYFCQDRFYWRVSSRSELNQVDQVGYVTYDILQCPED

DC injury = experiment: Example 2: spinal cord water content as measure of injury-induced oedema; settings: in vivo
Procedure: (§1) The lesion site+3 mm either side for mice and the lesion site+5 mm either side for the rat DC model were dissected out and the water content of the spinal cord (as a measure of oedema) was determined at 3 days after DC and CC SCI, as described previously (S. Li, C. H. Tator, Effects of MK801 on evoked potentials, spinal cord blood flow and cord edema in acute spinal cord injury in rats. Spinal Cord 37, 820-832 (1999)). Spinal cords containing the lesion site were weighed on aluminium foil, dried at 105° C. for 24 hr, and re-weighed. The percent water content was calculated as: water content (%)=[(wet weight-dry weight)/wet weight]×100%.
Using similar techniques to those described in Example 1, the water content in the spinal cord as a measure of injury-induced oedema was determined for both AZD1236 & AZD3342 (see FIG. 20).

human MMP-12 = human MMP-12 (Homo sapiens, UniProt P39900); experiment: Inhibition of human MMP-12 (IC50); format: biochemical
human MMP-12, sequence (P39900 106-470): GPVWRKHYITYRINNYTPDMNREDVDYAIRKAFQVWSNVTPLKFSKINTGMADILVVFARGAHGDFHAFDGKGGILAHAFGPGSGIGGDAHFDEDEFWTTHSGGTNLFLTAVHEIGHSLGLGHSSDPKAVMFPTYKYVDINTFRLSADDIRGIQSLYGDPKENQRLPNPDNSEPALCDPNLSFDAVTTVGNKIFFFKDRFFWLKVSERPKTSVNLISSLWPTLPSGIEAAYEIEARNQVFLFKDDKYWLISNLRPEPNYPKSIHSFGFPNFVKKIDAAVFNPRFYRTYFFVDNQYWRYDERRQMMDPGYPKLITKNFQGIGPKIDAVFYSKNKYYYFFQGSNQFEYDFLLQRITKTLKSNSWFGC

[1] = test system: mice with DC crush injury; experiment: Spinal cord water content (oedema) after DC crush injury in mice; format: in vivo, mouse; settings: for spinal cord water content, comparison of MMP inhibitors (FIG. 4) / spinal cord water content: 3 days after DC injury; for spinal cord water content, comparison of MMP inhibitors (FIG. 4): doses and routes of Table 1, vs DC+vehicle
Procedure: For oral delivery of AZD1236, n=6 adult male C57BL6 mice/group (Charles River, Margate, UK) were randomly allocated to either: (1), Sham (control; partial laminectomy but no DC crush injury); (2), DC crush injury+vehicle (partial laminectomy followed by DC crush injury and injection of vehicle); (3), DC crush injury+100 mg/kg AZD1236; (4), DC crush injury+200 mg/kg AZD1236; and (5), DC crush injury+300 mg/kg AZD1236. For intrathecal (it) delivery of AZD1236, adult male C57BL6 mice (25-30 g) (Charles River, Margate, UK) were randomly allocated to either: (1), Sham (control; partial laminectomy but no DC crush injury); (2), DC crush injury+vehicle (partial laminectomy followed by DC crush injury and injection of vehicle); (3), DC crush injury+2.5 mg/kg AZD1236; (4), DC crush injury+5 mg/kg AZD1236; and (5), DC crush injury+10 mg/kg AZD1236. For intrathecal delivery an indwelling atlanto-occipital intrathecal catheter was inserted into the intrathecal space, as described previously (F. A. Oladosu, B. P. Ciszek, S. C. O'Buckley, A. G. Nackley, Novel intrathecal and subcutaneous catheter delivery systems in the mouse. J Neurosci Methods 264, 119-128 (2016)). Briefly, with mice in the sternal recumbency a small incision was made at the nape of the neck followed by detachment of the muscles on either side of the external occipital crest to expose the A-O membrane. The membrane was incised and a 6 cm Alzet mouse intrathecal catheter (Alzet, Cupertino, Calif., USA) and polyurethane segments were gently guided 2.5 cm into the intrathecal space. The catheter was secured using 4-0 silk sutures (Oasis Medical, IL) and the exposed end of the catheter was sealed off with a stainless-steel plug and affixed to the upper back. Animals were injected immediately with vehicle or AZD1236 followed by a 10 μl PBS catheter flush. Injections were repeated every twice daily for the first 3 days after injury and drugs and vehicle reagents were delivered over 1 min time period using a Hamilton microlitre syringe (Hamilton Co, USA). Where specified intact animals with no surgical procedures were also used. All lesions were administered under 5% isofluorane induced inhalation anaesthesia, with 1.51/min O2. Pre- and post-injury analgesia was also provided.
DC crush injury was administered bilaterally at the T8 vertebral level as described previously (S. Surey, M. Berry, A. Logan, R. Bicknell, Z. Ahmed, Differential cavitation, angiogenesis and wound-healing responses in injured mouse and rat spinal cords. Neuroscience 275, 62-80 (2014); M. L. Read, S. Mir, R. Spice, R. J. Seabright, E. L. Suggate, Z. Ahmed, M. Berry, A. Logan, Profiling RNA interference (RNAi)-mediated toxicity in neural cultures for effective short interfering RNA design. J Gene Med 11, 523-534 (2009)). Briefly, calibrated watchmaker's forceps were separated by 0.5 mm and inserted through the dorsal cord meninges to a depth of 0.45 mm in mice and separated by 1 mm and inserted through the dorsal cord meninges to a depth of 1.0 mm in rats, and the DC were crushed for 3 seconds. AZD1236 or vehicle was administered twice daily by oral gavage or intrathecally, either immediately for the first 3 days or 24 hours after injury and treating twice daily until day 4 (i.e. 3 days of AZD1236 dosing). All experiments were performed with n=6 mice/group and repeated on at least 2-3 independent occasions (total=12-18 animals/group/test).
as §1, with “The percent water content was calculated as: water content (%)=[(wet weight-dry weight)/wet weight]×100%.” left out

Row | SMILES | IC50 (human MMP-9) | DC injury-induced increase in water content (FIG. 20) (DC injury) | IC50 (human MMP-12) | spinal cord water content, comparison of MMP inhibitors (FIG. 4) [1] | other results
1 | C[C@]1(CS(=O)(=O)N2CCC(Oc3ccc(Cl)cn3)CC2)NC(=O)NC1=O [AZD3342, (5S)-5-[4-(5-chloro-pyridin-2-yloxy)-piperidine-1-sulfonylmethyl]-5-methylimidazolidine-2,4-dione] | 10 nM | completely suppressed | 6 nM and 5.9 nM |  | IC50 (rat MMP-9; read-out: IC50 against rat MMP-9): 117 nM; IC50 (rat MMP-12; read-out: IC50 against rat MMP-12): 35 nM
2 | CCN(CC)Cc1cc(C)c(N(Cc2ccccc2)S(=O)(=O)c2ccc(OC)cc2)c(C(=O)NO)c1 [MMP-9 Inhibitor I, reference compound] |  |  |  | significantly reduced spinal cord water content | 
3 | COCCN1CCC(C(=O)NO)(S(=O)(=O)c2ccc(Oc3ccc(OC(F)(F)F)cc3)cc2)CC1 [SD2590, N-Hydroxy-1-(2-methoxyethyl)-4-[4-[4-(trifluoromethoxy)phenoxy]phenyl]sulfonyl]-4-piperidinecarboxamide hydrochloride, reference compound] |  |  |  | significantly reduced spinal cord water content | 
4 | C[C@]1(CS(=O)(=O)N2CC=C(C#Cc3cnc(C4CC4)nc3)CC2)NC(=O)NC1=O [AZD1236] | 4.5 nM | completely suppressed | 6.1 nM | far more effective than any of these compounds; also recorded: almost completely ablating DC injury-induced rises | activity against rat MMP-9 (rat MMP-9): not active; intrathecal dose required for same reduction of water content, as fraction of oral dose ([1]; intrathecal vs oral): 1/40; spinal cord water content ([1]; intrathecal, 5.0 and 10.0 mg/kg): reduced to sham-treated levels; SCI-induced water content, 24-h delayed treatment ([1]; optimal doses, 24 h delay vs immediate): equally as effective as immediate delivery; spinal cord water content ([1]; oral, twice daily, 200 mg/kg and 300 mg/kg): reducing to sham-treated levels; activity against rat MMP-12 (rat MMP-12): not active
5 | CNC(=O)[C@H](Cc1c[nH]c2ccccc12)NC(=O)[C@@H](CC(=O)NO)CC(C)C [GM6001, (2R)—N^4-Hydroxy-N^1-[(1S)-1-(1H-indol-3-ylmethyl)-2-(methylamino)-2-oxoethyl]-2-(2-methylpropyl)butanediamide, reference compound] |  |  |  | significantly reduced spinal cord water content | 
